Reference: ChEMBL document CHEMBL5223062, “Tumor pyruvate kinase M2 modulators: a comprehensive account of activators and inhibitors as anticancer agents” (RSC Med Chem, 2021)

Legend:
Pyruvate kinase PKM [1] = target: T1, Pyruvate kinase PKM (Homo sapiens, UniProt P14618); assay: Inhibition of PKM2 (unknown origin) at 10 uM relative to control
Target sequence in this assay (P14618 2-531 limits assumed): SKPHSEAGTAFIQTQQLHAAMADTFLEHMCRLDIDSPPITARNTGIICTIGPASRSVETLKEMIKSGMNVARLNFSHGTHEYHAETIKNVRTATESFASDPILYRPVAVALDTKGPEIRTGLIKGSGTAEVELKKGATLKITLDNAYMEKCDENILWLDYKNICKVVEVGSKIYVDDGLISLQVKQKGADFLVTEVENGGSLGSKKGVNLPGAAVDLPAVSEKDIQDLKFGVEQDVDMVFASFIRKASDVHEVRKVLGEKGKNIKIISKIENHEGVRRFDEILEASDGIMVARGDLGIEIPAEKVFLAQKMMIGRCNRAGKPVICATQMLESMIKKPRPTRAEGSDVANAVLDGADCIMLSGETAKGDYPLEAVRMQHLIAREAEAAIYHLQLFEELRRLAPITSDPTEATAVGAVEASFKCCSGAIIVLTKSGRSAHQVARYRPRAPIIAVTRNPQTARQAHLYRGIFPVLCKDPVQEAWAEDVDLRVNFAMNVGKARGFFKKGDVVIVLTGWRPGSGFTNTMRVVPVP

NCI-H1299 [2] = assay: Inhibition of glycolysis in human NCI-H1299 cells; assay type: functional
Pyruvate kinase PKM [3] = target: T1, Pyruvate kinase PKM; assay: Inhibition of PKM1 (unknown origin) at 10 uM relative to control
Target sequence in this assay (P14618 2-531 limits assumed): as above

Pyruvate kinase PKM [4] = target: T1, Pyruvate kinase PKM; assay: Activation of PKM2 (unknown origin)
Target sequence in this assay (P14618 whole entry): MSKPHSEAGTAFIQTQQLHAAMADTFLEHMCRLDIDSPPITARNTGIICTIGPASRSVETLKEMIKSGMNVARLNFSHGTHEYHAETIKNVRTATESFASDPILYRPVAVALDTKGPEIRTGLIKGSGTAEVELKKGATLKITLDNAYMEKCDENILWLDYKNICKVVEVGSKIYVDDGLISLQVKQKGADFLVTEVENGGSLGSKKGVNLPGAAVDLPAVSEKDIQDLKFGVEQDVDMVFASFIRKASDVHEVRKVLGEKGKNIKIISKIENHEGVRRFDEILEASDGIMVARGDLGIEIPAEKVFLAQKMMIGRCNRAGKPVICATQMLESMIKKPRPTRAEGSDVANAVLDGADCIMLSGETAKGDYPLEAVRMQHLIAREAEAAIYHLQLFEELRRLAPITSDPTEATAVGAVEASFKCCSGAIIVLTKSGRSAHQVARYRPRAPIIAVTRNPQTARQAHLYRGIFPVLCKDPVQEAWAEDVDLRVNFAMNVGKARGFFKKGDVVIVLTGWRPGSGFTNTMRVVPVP

DLD-1 = assay: Antiproliferative activity against human DLD-1 cells assessed as cell growth inhibition; assay type: functional, cell-based
HCT-116 = assay: Antiproliferative activity against human HCT-116 cells assessed as cell growth inhibition; assay type: functional, cell-based
HT-29 = assay: Antiproliferative activity against human HT-29 cells assessed as cell growth inhibition; assay type: functional, cell-based
Pyruvate kinase PKM [5] = target: T1, Pyruvate kinase PKM; assay: Activation of PKM2 in human NCI-H1299 cells; assay type: cell-based
Target sequence in this assay (P14618 whole entry): as above

Pyruvate kinase PKM [6] = target: T1, Pyruvate kinase PKM; assay: Inhibition of PKM2 (unknown origin)
Target sequence in this assay (P14618 whole entry): as above

Pyruvate kinase PKM [7] = target: T1, Pyruvate kinase PKM; assay: Binding affinity to PKM2 (unknown origin) assessed as Gibbs free energy
Target sequence in this assay (P14618 2-531 limits assumed): as the sequence (P14618 2-531 limits assumed) above

PC-3 = assay: Antiproliferative activity against human PC-3 cells assessed as cell growth inhibition; assay type: functional, cell-based
HeLa = assay: Antiproliferative activity against human HeLa cells assessed as cell growth inhibition; assay type: functional, cell-based
NCI-H1299 [8] = assay: Antiproliferative activity against human NCI-H1299 cells assessed as cell growth inhibition; assay type: functional, cell-based

SMILES: Cc1ccc(C)n1-c1ccc(O)c(C(=O)O)c1
- inhibition (Pyruvate kinase PKM [1]): 81%
- inhibition (INH) (NCI-H1299 [2]): 18.5%
- inhibition (Pyruvate kinase PKM [3]): 34%

SMILES: O=C1CCc2cc(S(=O)(=O)Nc3ccc(F)c(Cl)c3)c(F)cc2N1
- AC50 (Pyruvate kinase PKM [4]): 90 nM

SMILES: O=c1c(O)c(-c2cc(O)c(O)c(O)c2)oc2cc(O)cc(O)c12 [MYRICETIN]
- AC50 (Pyruvate kinase PKM [4]): 510 nM

SMILES: COc1ccc(-c2cc(=O)c3c(OC)c(OC)c(OC)c(OC)c3o2)cc1 [TANGERETIN]
- AC50 (Pyruvate kinase PKM [4]): 950 nM

SMILES: Nc1cccc(S(=O)(=O)N2CCCN(S(=O)(=O)c3ccc4c(c3)OCCO4)CC2)c1
- AC50 (Pyruvate kinase PKM [4]): 30 nM

SMILES: CCCCCN1/C(=C\C=C\C2N(CCCC)c3cc(Cl)c(Cl)cc3N2CCCCC)N(CCCC)c2cc(Cl)c(Cl)cc21 (stereo not given)
- inhibition (Pyruvate kinase PKM [1]): 86%
- inhibition (Pyruvate kinase PKM [3]): 31%

SMILES: O=C(c1cc(C(F)(F)F)n[nH]1)N(Cc1ccc(O)cc1F)CC1CCC1
- AC50 (Pyruvate kinase PKM [4]): 10 nM

SMILES: O=c1cc(-c2ccc(O)cc2)oc2cc(O)cc(O)c12 [APIGENIN]
- IC50 (DLD-1): 89500 nM
- IC50 (HCT-116): 27900 nM
- IC50 (HT-29): 2000 nM

SMILES: Cc1cc2c(s1)c1cnn(Cc3ccccc3F)c(=O)c1n2C
- AC50 (Pyruvate kinase PKM [5]): 60 nM

SMILES: Cn1cc(C(=O)c2cccc(Cl)c2Cl)cc1C(=O)NCCNC(=O)c1cc(C(=O)c2cccc(Cl)c2Cl)cn1C
- AC50 (Pyruvate kinase PKM [4]): 10 nM

SMILES: O=P(O)(O)OC[C@H]1O[C@](O)(COP(=O)(O)O)[C@@H](O)[C@@H]1O [FOSFRUCTOSE]
- AC50 (Pyruvate kinase PKM [4]): 7000 nM

SMILES: O=C(O)/C=C/c1ccc(O)cc1 [COUMARIC ACID]
- AC50 (Pyruvate kinase PKM [4]): 22200 nM

SMILES: COc1cc(/C=C/C(=O)O)cc(OC)c1O [SINAPINATE]
- AC50 (Pyruvate kinase PKM [4]): 26200 nM

SMILES: CC(C)=CC[C@@H](O)C1=CC(=O)c2c(O)ccc(O)c2C1=O [SHIKONIN]
- IC50 (Pyruvate kinase PKM [6]): 1420 nM
- deltaG (Pyruvate kinase PKM [7]): -7.98 kcal/mol

SMILES: O=S(=O)(Nc1ccc(C2(O)CSC(=S)N2Cc2ccccc2)cc1)c1ccc2c(c1)OCCO2 (stereo not given)
- IC50 (PC-3): 460 nM
- IC50 (HeLa): 460 nM
- AC50 (Pyruvate kinase PKM [4]): 3140 nM
- IC50 (HCT-116): 460 nM

SMILES: O=C(O)CN1C(=O)/C(=C/c2ccc(OC(=O)c3ccccc3I)cc2)SC1=S
- inhibition (Pyruvate kinase PKM [1]): 84%
- inhibition (Pyruvate kinase PKM [3]): 36%

SMILES: CC(C)=CCC1=C(O)C(=O)c2ccccc2C1=O [LAPACHOL]
- IC50 (Pyruvate kinase PKM [6]): 1400 nM
- deltaG (Pyruvate kinase PKM [7]): -9.34 kcal/mol

SMILES: CC1=C(CSC(=S)N2CCCCC2)C(=O)c2ccccc2C1=O
- IC50 (HeLa): 2950 nM
- IC50 (HCT-116): 2950 nM
- IC50 (NCI-H1299 [8]): 2950 nM

SMILES: COc1cccc(Cn2ncc3c4sc([S+](C)[O-])cc4n(C)c3c2=O)c1 (stereo not given)
- AC50 (Pyruvate kinase PKM [5]): 70 nM

SMILES: C=C1C(=O)O[C@H]2C1CCC(C)=C1CC[C@@](C)(O)[C@@H]12 (stereo not given in full)
- AC50 (Pyruvate kinase PKM [4]): 6 nM

SMILES: COc1ccccc1N1CCN(C(=O)c2ccc(NS(=O)(=O)c3cccc4cccnc34)cc2)CC1
- AC50 (Pyruvate kinase PKM [4]): 10 nM

SMILES: C=C1C(=O)O[C@@H]2[C@H]3O[C@]3(C)CC/C=C(/C(=O)OCCOCCOC(=O)/C3=C/CC[C@@]4(C)O[C@@H]4[C@H]4OC(=O)C(=C)[C@@H]4CC3)CC[C@@H]12
- AC50 (Pyruvate kinase PKM [4]): 15 nM
